Like-named read-outs stand apart in the source and are kept apart here.
Columns and labels:
Assay in all cases: KINOMEscan assay (Eurofins DiscoverX)
Format in all cases: binding
kinome (kinase panel) [1] = target: T1, kinome (kinase panel) (Homo sapiens, UniProt P29376); settings: LTK; 1000 nM; read-out: Percent Control
T1 construct: purchased Eurofins DiscoverX

kinome (kinase panel) [2] = target: T2, kinome (kinase panel) (Homo sapiens, UniProt Q9UBF8); settings: PIK4CB (Entrez PI4KB); 1000 nM; read-out: Percent Control
T2 construct: purchased Eurofins DiscoverX

kinome (kinase panel) [3] = target: T3, kinome (kinase panel) (Homo sapiens, UniProt P27361); settings: ERK1 (Entrez MAPK3); 1000 nM; read-out: Percent Control
T3 construct: purchased Eurofins DiscoverX

kinome (kinase panel) [4] = target: T4, kinome (kinase panel) (Homo sapiens, UniProt P51813); settings: BMX; 1000 nM; read-out: Percent Control
T4 construct: purchased Eurofins DiscoverX

kinome (kinase panel) [5] = target: T5, kinome (kinase panel) (Homo sapiens, UniProt P06213); settings: INSR; 1000 nM; read-out: Percent Control
T5 construct: purchased Eurofins DiscoverX

kinome (kinase panel) [6] = target: T6, kinome (kinase panel) (Homo sapiens, UniProt P19784); settings: CSNK2A2; 1000 nM; read-out: Percent Control
T6 construct: purchased Eurofins DiscoverX

kinome (kinase panel) [7] = target: T7, kinome (kinase panel) (Homo sapiens, UniProt P42336, H1047Y); settings: read-out: Percent Control
T7 construct: purchased Eurofins DiscoverX

kinome (kinase panel) [8] = target: T8, kinome (kinase panel) (Homo sapiens, UniProt P14616); settings: INSRR; 1000 nM; read-out: Percent Control
T8 construct: purchased Eurofins DiscoverX

kinome (kinase panel) [9] = target: T9, kinome (kinase panel) (Homo sapiens, UniProt P10721); settings: 1000 nM, read-out: Percent Control
T9 construct: purchased Eurofins DiscoverX

kinome (kinase panel) [10] = target: T10, kinome (kinase panel) (Homo sapiens, UniProt P42685); settings: FRK; 1000 nM; read-out: Percent Control
T10 construct: purchased Eurofins DiscoverX

kinome (kinase panel) [11] = target: T11, kinome (kinase panel) (Homo sapiens, UniProt P29320); settings: EPHA3; 1000 nM; read-out: Percent Control
T11 construct: purchased Eurofins DiscoverX

kinome (kinase panel) [12] = target: T12, kinome (kinase panel) (Homo sapiens, UniProt Q13554); settings: CAMK2B; 1000 nM; read-out: Percent Control
T12 construct: purchased Eurofins DiscoverX

kinome (kinase panel) [13] = target: T13, kinome (kinase panel) (Homo sapiens, UniProt O75676); settings: 1000 nM, read-out: Percent Control
T13 construct: purchased Eurofins DiscoverX

kinome (kinase panel) [14] = target: T14, kinome (kinase panel) (Homo sapiens, UniProt P51812); settings: 1000 nM, read-out: Percent Control
T14 construct: purchased Eurofins DiscoverX

kinome (kinase panel) [15] = target: T15, kinome (kinase panel) (Homo sapiens, UniProt P54756); settings: EPHA5; 1000 nM; read-out: Percent Control
T15 construct: purchased Eurofins DiscoverX

kinome (kinase panel) [16] = target: T16, kinome (kinase panel) (Homo sapiens, UniProt P53778); settings: p38-gamma (Entrez MAPK12); 1000 nM; read-out: Percent Control
T16 construct: purchased Eurofins DiscoverX

kinome (kinase panel) [17] = target: T17, kinome (kinase panel) (Homo sapiens, UniProt P36888, D835Y); settings: […]; 1000 nM; read-out: Percent Control
T17 construct: purchased Eurofins DiscoverX

kinome (kinase panel) [18] = target: T18, kinome (kinase panel) (Homo sapiens, UniProt Q9H2K8); settings: TAOK3; 1000 nM; read-out: Percent Control
T18 construct: purchased Eurofins DiscoverX

kinome (kinase panel) [19] = target: T19, kinome (kinase panel) (Homo sapiens, UniProt P36888, D835V); settings: […]; 1000 nM; read-out: Percent Control
T19 construct: purchased Eurofins DiscoverX

kinome (kinase panel) [20] = target: T20, kinome (kinase panel) (Homo sapiens, UniProt Q14680); settings: MELK; 1000 nM; read-out: Percent Control
T20 construct: purchased Eurofins DiscoverX

kinome (kinase panel) [21] = target: T21, kinome (kinase panel) (Homo sapiens, UniProt Q9H422); settings: HIPK3; 1000 nM; read-out: Percent Control
T21 construct: purchased Eurofins DiscoverX

kinome (kinase panel) [22] = target: T22, kinome (kinase panel) (Homo sapiens, UniProt O15530); settings: PDPK1; 1000 nM; read-out: Percent Control
T22 construct: purchased Eurofins DiscoverX

kinome (kinase panel) [23] = target: T23, kinome (kinase panel) (Homo sapiens, UniProt P06241); settings: FYN; 1000 nM; read-out: Percent Control
T23 construct: purchased Eurofins DiscoverX

kinome (kinase panel) [24] = target: T24, kinome (kinase panel) (Homo sapiens, UniProt Q02779); settings: MLK2 (Entrez MAP3K10); 1000 nM; read-out: Percent Control
T24 construct: purchased Eurofins DiscoverX

kinome (kinase panel) [25] = target: T25, kinome (kinase panel) (Homo sapiens, UniProt Q9BVS4); settings: RIOK2; 1000 nM; read-out: Percent Control
T25 construct: purchased Eurofins DiscoverX

kinome (kinase panel) [26] = target: T26, kinome (kinase panel) (Homo sapiens, UniProt P04049); settings: RAF1; 1000 nM; read-out: Percent Control
T26 construct: purchased Eurofins DiscoverX

kinome (kinase panel) [27] = target: T27, kinome (kinase panel) (Homo sapiens, UniProt Q15139); settings: PRKD1; 1000 nM; read-out: Percent Control
T27 construct: purchased Eurofins DiscoverX

kinome (kinase panel) [28] = target: T28, kinome (kinase panel) (Homo sapiens, UniProt Q8IU85); settings: CAMK1D; 1000 nM; read-out: Percent Control
T28 construct: purchased Eurofins DiscoverX

kinome (kinase panel) [29] = target: T29, kinome (kinase panel) (Homo sapiens, UniProt O00141); settings: SGK (SGK1); 1000 nM; read-out: Percent Control
T29 construct: purchased Eurofins DiscoverX

kinome (kinase panel) [30] = target: T30, kinome (kinase panel) (Homo sapiens, UniProt P42338); settings: PIK3CB; 1000 nM; read-out: Percent Control
T30 construct: purchased Eurofins DiscoverX

kinome (kinase panel) [31] = target: T31, kinome (kinase panel) (Homo sapiens, UniProt Q15759); settings: p38-beta (Entrez MAPK11); 1000 nM; read-out: Percent Control
T31 construct: purchased Eurofins DiscoverX

kinome (kinase panel) [32] = target: T32, kinome (kinase panel) (Homo sapiens, UniProt Q9NRM7); settings: LATS2; 1000 nM; read-out: Percent Control
T32 construct: purchased Eurofins DiscoverX
T32 sequence (Q9NRM7 whole entry): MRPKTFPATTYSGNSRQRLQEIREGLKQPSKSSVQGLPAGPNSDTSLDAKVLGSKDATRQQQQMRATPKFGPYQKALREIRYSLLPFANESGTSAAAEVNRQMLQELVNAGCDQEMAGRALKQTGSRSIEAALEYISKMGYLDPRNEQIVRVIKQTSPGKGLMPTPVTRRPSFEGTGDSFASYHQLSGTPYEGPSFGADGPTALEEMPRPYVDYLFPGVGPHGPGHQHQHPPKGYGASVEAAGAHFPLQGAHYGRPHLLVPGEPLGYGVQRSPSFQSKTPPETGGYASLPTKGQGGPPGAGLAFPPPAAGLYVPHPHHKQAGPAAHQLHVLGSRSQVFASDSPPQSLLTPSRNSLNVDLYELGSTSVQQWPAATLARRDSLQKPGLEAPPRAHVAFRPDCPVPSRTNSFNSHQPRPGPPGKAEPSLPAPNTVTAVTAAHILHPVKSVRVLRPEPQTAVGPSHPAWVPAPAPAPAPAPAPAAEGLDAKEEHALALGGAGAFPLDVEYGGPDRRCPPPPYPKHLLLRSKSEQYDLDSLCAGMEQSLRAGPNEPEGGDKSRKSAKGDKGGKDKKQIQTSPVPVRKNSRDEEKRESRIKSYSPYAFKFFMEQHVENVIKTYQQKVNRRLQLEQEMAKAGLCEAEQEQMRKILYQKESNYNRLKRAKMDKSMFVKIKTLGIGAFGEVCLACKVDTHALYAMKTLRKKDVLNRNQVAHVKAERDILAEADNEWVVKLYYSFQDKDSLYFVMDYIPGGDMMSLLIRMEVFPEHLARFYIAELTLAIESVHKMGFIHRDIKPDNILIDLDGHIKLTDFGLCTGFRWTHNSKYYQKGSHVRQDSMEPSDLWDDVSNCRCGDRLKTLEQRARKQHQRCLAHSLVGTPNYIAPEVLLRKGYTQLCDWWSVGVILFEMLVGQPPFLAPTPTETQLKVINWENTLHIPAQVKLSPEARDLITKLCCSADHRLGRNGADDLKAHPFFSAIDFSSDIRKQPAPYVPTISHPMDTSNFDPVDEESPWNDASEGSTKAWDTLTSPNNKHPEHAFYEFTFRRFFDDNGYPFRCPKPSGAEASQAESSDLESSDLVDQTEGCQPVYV

T13 sequence (O75676 whole entry): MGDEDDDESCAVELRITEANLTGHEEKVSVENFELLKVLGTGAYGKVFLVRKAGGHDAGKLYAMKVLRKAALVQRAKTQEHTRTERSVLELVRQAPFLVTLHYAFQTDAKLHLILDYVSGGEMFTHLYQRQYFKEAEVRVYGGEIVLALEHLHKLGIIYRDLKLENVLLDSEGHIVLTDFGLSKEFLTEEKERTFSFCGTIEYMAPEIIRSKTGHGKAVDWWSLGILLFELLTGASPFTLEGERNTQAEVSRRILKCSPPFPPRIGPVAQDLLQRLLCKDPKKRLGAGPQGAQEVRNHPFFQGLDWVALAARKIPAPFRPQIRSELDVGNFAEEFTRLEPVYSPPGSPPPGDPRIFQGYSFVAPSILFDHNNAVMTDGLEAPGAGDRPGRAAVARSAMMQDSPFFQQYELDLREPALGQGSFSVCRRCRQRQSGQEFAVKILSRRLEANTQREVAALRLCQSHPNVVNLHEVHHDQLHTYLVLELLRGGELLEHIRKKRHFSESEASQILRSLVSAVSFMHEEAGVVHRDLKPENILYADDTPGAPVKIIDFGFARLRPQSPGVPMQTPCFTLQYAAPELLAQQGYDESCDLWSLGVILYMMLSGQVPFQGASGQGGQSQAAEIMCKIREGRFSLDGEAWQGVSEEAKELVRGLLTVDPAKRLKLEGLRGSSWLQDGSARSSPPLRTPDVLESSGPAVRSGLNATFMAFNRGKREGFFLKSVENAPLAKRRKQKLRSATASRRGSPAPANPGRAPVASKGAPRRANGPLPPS
T14 sequence (P51812 whole entry): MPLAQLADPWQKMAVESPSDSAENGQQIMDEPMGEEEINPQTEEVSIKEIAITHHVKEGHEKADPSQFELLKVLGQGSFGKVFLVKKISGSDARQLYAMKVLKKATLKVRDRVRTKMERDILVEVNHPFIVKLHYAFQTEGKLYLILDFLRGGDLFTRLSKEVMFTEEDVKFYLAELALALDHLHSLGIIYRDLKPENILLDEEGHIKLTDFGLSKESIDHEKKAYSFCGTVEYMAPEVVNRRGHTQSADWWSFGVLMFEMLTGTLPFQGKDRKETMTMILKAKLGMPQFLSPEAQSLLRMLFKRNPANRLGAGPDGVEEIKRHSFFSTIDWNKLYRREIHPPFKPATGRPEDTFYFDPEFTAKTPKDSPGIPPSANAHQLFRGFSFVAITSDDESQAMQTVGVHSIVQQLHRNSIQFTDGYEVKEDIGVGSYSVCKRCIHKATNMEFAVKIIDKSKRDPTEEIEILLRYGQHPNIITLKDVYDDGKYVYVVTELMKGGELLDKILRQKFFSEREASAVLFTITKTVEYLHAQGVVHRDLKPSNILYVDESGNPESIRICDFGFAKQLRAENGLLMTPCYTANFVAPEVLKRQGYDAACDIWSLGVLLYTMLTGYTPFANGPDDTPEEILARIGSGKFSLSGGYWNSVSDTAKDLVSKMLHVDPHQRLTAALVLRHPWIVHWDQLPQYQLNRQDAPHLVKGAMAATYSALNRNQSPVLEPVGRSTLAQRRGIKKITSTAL
T9 sequence (P10721 26-976): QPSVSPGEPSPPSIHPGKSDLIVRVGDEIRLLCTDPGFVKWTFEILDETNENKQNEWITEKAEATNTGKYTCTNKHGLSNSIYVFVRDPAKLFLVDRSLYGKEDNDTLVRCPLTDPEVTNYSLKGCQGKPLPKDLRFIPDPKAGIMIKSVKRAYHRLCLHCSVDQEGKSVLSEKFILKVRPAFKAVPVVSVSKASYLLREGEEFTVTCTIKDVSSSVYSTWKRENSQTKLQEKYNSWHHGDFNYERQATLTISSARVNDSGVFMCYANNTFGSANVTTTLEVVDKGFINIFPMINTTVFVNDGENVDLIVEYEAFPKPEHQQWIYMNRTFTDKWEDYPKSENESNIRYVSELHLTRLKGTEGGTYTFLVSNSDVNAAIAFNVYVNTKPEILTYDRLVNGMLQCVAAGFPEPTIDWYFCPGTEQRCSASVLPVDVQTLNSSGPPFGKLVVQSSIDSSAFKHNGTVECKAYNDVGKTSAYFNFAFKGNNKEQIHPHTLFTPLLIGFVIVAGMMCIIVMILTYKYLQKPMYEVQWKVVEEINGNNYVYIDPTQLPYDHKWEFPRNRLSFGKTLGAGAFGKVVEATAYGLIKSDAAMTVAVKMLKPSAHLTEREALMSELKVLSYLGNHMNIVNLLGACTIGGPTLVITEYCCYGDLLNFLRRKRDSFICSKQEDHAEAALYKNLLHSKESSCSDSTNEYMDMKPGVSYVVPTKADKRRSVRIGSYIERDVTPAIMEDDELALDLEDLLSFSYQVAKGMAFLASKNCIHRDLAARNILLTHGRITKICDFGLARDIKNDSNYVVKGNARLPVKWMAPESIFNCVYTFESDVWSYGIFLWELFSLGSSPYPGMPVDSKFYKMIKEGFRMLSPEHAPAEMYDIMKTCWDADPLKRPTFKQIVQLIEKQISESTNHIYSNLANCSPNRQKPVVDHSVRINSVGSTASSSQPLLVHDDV
T10 sequence (P42685 whole entry): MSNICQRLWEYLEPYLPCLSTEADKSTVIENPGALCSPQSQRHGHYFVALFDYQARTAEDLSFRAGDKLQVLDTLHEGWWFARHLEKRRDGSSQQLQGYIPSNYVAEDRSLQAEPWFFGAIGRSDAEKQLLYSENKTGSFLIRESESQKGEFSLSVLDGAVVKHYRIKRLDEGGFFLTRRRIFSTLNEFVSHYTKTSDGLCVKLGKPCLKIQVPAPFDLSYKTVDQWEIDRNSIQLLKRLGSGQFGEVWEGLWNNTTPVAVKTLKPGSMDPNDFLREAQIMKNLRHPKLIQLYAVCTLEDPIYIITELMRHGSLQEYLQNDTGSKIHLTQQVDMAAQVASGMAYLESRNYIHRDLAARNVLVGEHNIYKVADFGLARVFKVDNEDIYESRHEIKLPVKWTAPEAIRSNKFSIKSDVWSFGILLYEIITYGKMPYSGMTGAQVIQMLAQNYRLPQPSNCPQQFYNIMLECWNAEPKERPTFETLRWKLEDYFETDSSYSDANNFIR
T23 sequence (P06241 whole entry): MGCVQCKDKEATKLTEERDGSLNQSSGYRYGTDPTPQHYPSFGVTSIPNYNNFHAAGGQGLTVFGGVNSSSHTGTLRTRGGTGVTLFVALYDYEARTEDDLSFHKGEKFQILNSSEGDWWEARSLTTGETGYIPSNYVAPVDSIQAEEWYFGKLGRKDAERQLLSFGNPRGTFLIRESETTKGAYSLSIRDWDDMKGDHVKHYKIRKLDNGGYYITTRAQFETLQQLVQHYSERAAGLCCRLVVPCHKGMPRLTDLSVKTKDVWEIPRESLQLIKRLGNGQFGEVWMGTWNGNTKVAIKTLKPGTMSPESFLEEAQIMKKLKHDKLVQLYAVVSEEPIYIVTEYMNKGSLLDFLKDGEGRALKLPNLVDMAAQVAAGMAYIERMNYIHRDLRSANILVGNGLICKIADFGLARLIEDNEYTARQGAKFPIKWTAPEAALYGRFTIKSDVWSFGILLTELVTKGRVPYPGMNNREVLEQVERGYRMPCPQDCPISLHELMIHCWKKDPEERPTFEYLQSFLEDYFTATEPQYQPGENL
T28 sequence (Q8IU85 whole entry): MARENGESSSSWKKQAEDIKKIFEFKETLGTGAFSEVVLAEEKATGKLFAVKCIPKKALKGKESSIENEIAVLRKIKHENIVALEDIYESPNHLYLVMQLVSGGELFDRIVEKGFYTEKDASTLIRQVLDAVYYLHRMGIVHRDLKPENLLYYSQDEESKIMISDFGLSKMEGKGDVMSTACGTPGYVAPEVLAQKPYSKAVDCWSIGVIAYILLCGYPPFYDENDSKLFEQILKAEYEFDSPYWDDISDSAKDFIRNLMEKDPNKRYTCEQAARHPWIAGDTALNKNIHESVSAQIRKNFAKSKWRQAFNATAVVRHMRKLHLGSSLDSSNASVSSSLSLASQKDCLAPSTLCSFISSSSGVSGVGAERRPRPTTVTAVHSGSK

## CN(C)C(=O)c1cc2cnc(Nc3ccc(-c4csc5c(=O)cc(N6CCOCC6)oc45)cc3)nc2n1C1CCCC1 [SRX3177]
Kinome (kinase panel) [1]
  remaining binding at 1 µM: 98%
Kinome (kinase panel) [2]
  remaining binding at 1 µM: 19%
Kinome (kinase panel) [3]
  remaining binding at 1 µM: 100%
Kinome (kinase panel) [4]
  remaining binding at 1 µM: 77%
Kinome (kinase panel) [5]
  remaining binding at 1 µM: 47%
Kinome (kinase panel) [6]
  remaining binding at 1 µM: 5.7%
Kinome (kinase panel) [7]
  remaining binding at 1 µM: 34%
Kinome (kinase panel) [8]
  remaining binding at 1 µM: 100%
Kinome (kinase panel) [9]; KIT-autoinhibited
  remaining binding at 1 µM: 73%
Kinome (kinase panel) [9]; KIT
  remaining binding at 1 µM: 68%
Kinome (kinase panel) [10]
  remaining binding at 1 µM: 100%
Kinome (kinase panel) [11]
  remaining binding at 1 µM: 90%
Kinome (kinase panel) [12]
  remaining binding at 1 µM: 82%
Kinome (kinase panel) [13]; RPS6KA4(Kin.Dom.1-N-terminal)
  remaining binding at 1 µM: 100%
Kinome (kinase panel) [13]; RPS6KA4(Kin.Dom.2-C-terminal)
  remaining binding at 1 µM: 55%
Kinome (kinase panel) [14]; RSK2(Kin.Dom.1-N-terminal) (RPS6KA3)
  remaining binding at 1 µM: 80%
Kinome (kinase panel) [14]; RSK2(Kin.Dom.2-C-terminal) (RPS6KA3)
  remaining binding at 1 µM: 100%
Kinome (kinase panel) [15]
  remaining binding at 1 µM: 100%
Kinome (kinase panel) [16]
  remaining binding at 1 µM: 66%
Kinome (kinase panel) [17]
  remaining binding at 1 µM: 83%
Kinome (kinase panel) [18]
  remaining binding at 1 µM: 2.5%
Kinome (kinase panel) [19]
  remaining binding at 1 µM: 2.1%
Kinome (kinase panel) [20]
  remaining binding at 1 µM: 100%
Kinome (kinase panel) [21]
  remaining binding at 1 µM: 77%
Kinome (kinase panel) [22]
  remaining binding at 1 µM: 98%
Kinome (kinase panel) [23]
  remaining binding at 1 µM: 96%
Kinome (kinase panel) [24]
  remaining binding at 1 µM: 100%
Kinome (kinase panel) [25]
  remaining binding at 1 µM: 6.6%
Kinome (kinase panel) [26]
  remaining binding at 1 µM: 100%
Kinome (kinase panel) [27]
  remaining binding at 1 µM: 100%
Kinome (kinase panel) [28]
  remaining binding at 1 µM: 95%
Kinome (kinase panel) [29]
  remaining binding at 1 µM: 56%
Kinome (kinase panel) [30]
  remaining binding at 1 µM: 22%
Kinome (kinase panel) [31]
  remaining binding at 1 µM: 100%
Kinome (kinase panel) [32]
  remaining binding at 1 µM: 42%

Source: paper PMC7385619, “A triple action CDK4/6-PI3K-BET inhibitor with augmented cancer cell cytotoxicity” (Cell Discovery, 2020)
